Records with an inconclusive call do not appear. Active and inactive are the calls of the source.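 Rule for the calls: active = score of 100, fluorescent reporter fully moved to nucleus as with estrogen, or estrogen effect fully blocked; inactive = score of 0 or 50, partial or no effect.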

The test has as its target G-protein coupled estrogen receptor 1 (Homo sapiens) (UniProt Q99527). Kind of test: GPR30 agonism via PIP3 reporter nuclear relocation, confirmation, orthogonal assay for GPR30 ligand project, imaging, Cos7 GPR30-GFP, PH-RFP, Akt PH domain (AID 1219). The settings on record: at 10 µM, stronger effect = higher value.
In the case of `O=C(O)c1ccc2c(c1)C1C(Cl)C(Sc3ccccc3[N+](=O)[O-])CC1C(c1cccc([N+](=O)[O-])c1)N2` (configuration not stated), the translocation response score was 0 (inactive).

Turning to `Cc1cc(C)c2c(c1)[C@@H]1C=CC[C@@H]1[C@H](c1ccc(S(=O)(=O)N3CCOCC3)cc1)N2`, the translocation response score was 100.

`O=C(O)c1cc(Cl)c2c(c1)[C@@H]1C=CC[C@@H]1[C@H](c1ccc(S(=O)(=O)N3CCOCC3)cc1)N2`: the translocation response score is 50 (inactive).

Turning to `COc1ccccc1N1CCN(C(=O)c2ccc3nc(-c4ccco4)c(-c4ccco4)nc3c2)CC1`, the translocation response score was 100.

`COc1cccc(NS(=O)(=O)c2ccc3c(c2)C2C=CCC2C(c2ccc(C(=O)O)cc2)N3)c1` (configuration not stated): the translocation response score is 50 (inactive).

Turning to `Nc1ncnc2c1ncn2C1CCC(CO)C(O)C1` (configuration not stated), the translocation response score was 50 (inactive).

For `Cc1cc(-c2nn3c(-c4ccccc4)nnc3s2)c2ccccc2n1`, the translocation response score was 100.

Source of the values: PubChem BioAssay AID1219 (NMMLSC, 2008).
